# From patent US6774116B2, “Prodrugs via acylation with cinnamate” (priority 2001, dated 2004)
# How the values were obtained:
# Assay type in all cases: in vivo, nude mice
# [1] = tested on: Human breast cancer xenographs; assay: Treatment of human breast carcinoma xenographs with A—Z—CINN 361
# Protocol: Human breast cancer xenographs are prepared as described (Burak et.al. 1998. Nucl. Med. Biol. 25:633-637) Xenographs are implanted s.c. into a nude mice. When the tumor reached 150-200 mm^3 in size, A—Z—CINN 361 is used to treat the tumor as follows; 0.1-1.0 mg of A—Z—CINN 361 (1 mg mAb protein with ˜25 ug paclitaxel covalently attached) is injected i.v. via tail vein into mice with the tumor. After 6 hours, mice that receive 0.1, 0.5 or 1.0 mg of A—Z—CINN 361 are anesthetized with a Ketamine/Rompun mixture. A 16G needle is used to create a hole in the skin and a 1 mm fiber optic probe is inserted up to the tumor. The tumor is exposed to white light for 5 minutes with a power of about 0.5 mW/cm^2. […] All mice are kept under “red lights” to prevent unnecessary light exposure and activation of A—Z—CINN 361 for 72 hours post injection, then returned to normal light/dark cycle.
# [2] = tested on: Human lung carcinoma cell line H2987; assay: Treatment of human lung carcinoma H2987 xenograft with A—Z—CINN 441
# Protocol: MAb BR110 is a murine mAb to a 66-kDa glycoprotein that is found on the cell surface of human lung, colon and breast tumor cells. Human lung carcinoma cell line H2987 is grown in cell culture as described (U.S. Pat. No. 5,840,854). 1×10^7 cells/mouse are implanted s.c. into a nude mice. When the tumors reached 150-200 mm^3 in size, A—Z—CINN 441 is used to treat the tumor as follows: 0.1-1.0 mg of A—Z—CINN 441 (1 mg mAb protein with ˜25 ug paclitaxel covalently attached) is injected i.v. via tail vein into mice with the tumor. After 6 hours, mice that receive 0.1, 0.5 or 1.0 mg of A—Z—CINN 441 are anesthetized with a Ketamine/Rompun mixture. A 16G needle is used to create a hole in the skin and a 1 mm fiber optic probe is inserted up to the tumor. The tumor is exposed to white light for 5 minutes with a power of about 0.5 mW/cm^2. […] All mice are kept under “red lights” to prevent light activation of the drug, for 72 hours post injection, then returned to normal light/dark cycle. […] Groups that receive antibody and free drug (unlinked) show tumor growth, and by 28 days the mice either die or have tumors>800 mm^3.
# [3] = tested on: Human colon carcinoma cell line LS-180; assay: Treatment of human colon carcinoma LS-180 xenograft with A—Z—CINN 551
# Protocol: Human colon carcinoma cell line LS-180 is grown in cell culture as described (Kinuya et.al. 2001. J. Nucl. Med. 42:596-600). 1×10^7 cells/mouse are implanted s.c. into nude mice. When the tumors reached 150-200 mm^3 in size, A—Z—CINN 551 is used to treat the tumor as follows; 0.1-1.0 mg of A—Z—CINN 551 (1 mg mAb protein with ˜25 ug paclitaxel covalently attached) is injected i.v. via tail vein into mice with the tumor. After 6 hours, mice that received 0.1, 0.5 or 1.0 mg of A—Z—CINN […] are anesthetized with a Ketamine/Rompun mixture. A 16 G needle is used to create a hole in the skin and a 1 mm fiber optic probe is inserted up to the tumor. The tumor is exposed to white light for 5 minutes with a power of about 0.5 mW/cm^2. […] All mice are kept under “red lights” to prevent unnecessary light exposure and activation of A—Z—CINN 551 for 72 hours post injection, then returned to normal light/dark cycle.
# [4] = in 7 days, light treatment 6 hours after i.v. injection, 0.1, 0.5 or 1.0 mg
substance,measurement,setting,value
NR-LU-10 mAb-S-Mal-PEG3400-N—CINN-paclitaxel [A—Z—CINN 361],tumor shrinkage,[1]; [4],> 50%
same,tumor size by 28 days,[1]; light treatment,less than 50 mm^3
same,tumor size at 28 days,[1]; no light stimulation,smaller than 100 mm^3
BR110-mAb-S-Mal-PEG3400-N—CINN-paclitaxel [A—Z—CINN 441],tumor shrinkage,[2]; [4],> 50%
same,tumors by 28 days,[2]; light treatment,not detectable
same,tumor size at 28 days,[2]; no light stimulation,smaller than 50 mm
A7-mAb-S-Mal-PEG3400-N—CINN-paclitaxel [A—Z—CINN 551],tumor shrinkage,[3]; [4],> 50%
same,tumor size by 28 days,[3]; light treatment,less than 50 mm^3
same,tumor size at 28 days,[3]; no light stimulation,smaller than 100 mm^3
